Laboratory results reported in US20050059731A1, “Erythrosin-based antimicrobial photodynamic therapy compound and its use” (CeramOptec Industries, Inc., priority 2003, published 2005).

System: Streptococcus mutans DSM6178 (ATCC 35668)
Test: Photodynamic inactivation of bacterial cell suspensions of Streptococcus mutans by Erythrosin B gel
Type: cell-based
Settings: in saliva; general statement
Description: Photodynamic Inactivation of Bacterial Cell Suspensions of Streptococcus mutans by Erythrosin B: The organism used in this study was Streptococcus mutans DSM6178 (ATCC 35668). Gram-positive Streptococcus spec. are jointly responsible for the development of oral caries. Streptococcus mutans cells were grown aerobically overnight at 37° C. in Tryptic Soy Broth (Merck KGaA Darmstadt, Germany). Cells were harvested by centrifugation and resuspended in sterile phosphate-buffered saline (PBS) supplemented with 10% sterile filtered natural saliva. The final OD (Optical Density) at 600 nm, for a 1 cm path length, in all cases was 0.05. About 0.5 ml of an Erythrosin B gel of hydroxyethyl cellulose (1 mM, 2 mM, 3 mM and 8 mM Erythrosin B) were placed at the bottom of a tube. The gel was layered with 0.5 ml of the bacterial suspension and exposed for 1, 3 or 5 minutes, respectively under slight shaking at room temperature. After exposure 250 μl of the suspension was placed in a new tube, the tube was centrifuged, the supernatant was removed and the cell pellet was resuspended in 250 μl of PBS+10% natural saliva (sterile filtered). […] The fluence rate for these settings was about 0.1 W/cm^2 (measured with Optometer P-9710, Gigahertz-Optik GmbH, Puchheim, Germany). […]

O.O=C([O-])c1ccccc1-c1c2cc(I)c(=O)c(I)c-2oc2c(I)c([O-])c(I)cc12.[Na+].[Na+] [Erythrosin B]
photosensitizing effectiveness against Gram-positive bacteria: effective photosensitizing substance against Gram-positive bacteria in saliva
